Assay results: article PMC10030462, “SB2301-mediated perturbation of membrane composition in lipid droplets induces lipophagy and lipid droplets ubiquitination” (Communications Biology, 2023)

What was measured:
[1] = tested on: HeLa human cervical cancer cells; assay: cells; set-up: cellular lipid droplet reduction, fluorescence imaging high-content phenotypic screen; settings: 24 h, lipid droplet reduction in HeLa; for IC50: read-out: LD reduction (IC50, uM) Potency
Experimental: The LD reduction activity of these analogues (1–20) was initially evaluated in human cervical cancer HeLa cells at a fixed concentration (10 μM each) to determine the efficacy of LD reduction. In addition, potency was determined by measuring the half-maximal inhibitory concentration (IC50) (Supplementary Table 1). Compounds with high cytotoxicity and low water solubility were excluded during high-content phenotypic screening. […] We also observed a similar pattern of LD reduction in human hepatocellular carcinoma HepG2 cells (Supplementary Fig. 2A) and mouse hepatocyte AML12 cells (Supplementary Fig. 2B). Consistent with the reduction in cellular LDs, the cellular triglyceride (TG) content was reduced in a dose-dependent manner (Fig. 1E). Based on these findings, we conducted a further study to determine the mechanism by which SB2301 reduced cellular LDs.

[2] = molecular target: T1, PCYT2 (ethanolamine-phosphate cytidylyltransferase 2) (Homo sapiens, UniProt Q99447); assay: SPR (Biacore T100, immobilized human PCYT2, […] fit); also CETSA and TS-FITGE in HepG2 cells; type: binding
T1 construct: Human PCYT2 (Prospec, enz-221)
T1 sequence (Q99447 whole entry): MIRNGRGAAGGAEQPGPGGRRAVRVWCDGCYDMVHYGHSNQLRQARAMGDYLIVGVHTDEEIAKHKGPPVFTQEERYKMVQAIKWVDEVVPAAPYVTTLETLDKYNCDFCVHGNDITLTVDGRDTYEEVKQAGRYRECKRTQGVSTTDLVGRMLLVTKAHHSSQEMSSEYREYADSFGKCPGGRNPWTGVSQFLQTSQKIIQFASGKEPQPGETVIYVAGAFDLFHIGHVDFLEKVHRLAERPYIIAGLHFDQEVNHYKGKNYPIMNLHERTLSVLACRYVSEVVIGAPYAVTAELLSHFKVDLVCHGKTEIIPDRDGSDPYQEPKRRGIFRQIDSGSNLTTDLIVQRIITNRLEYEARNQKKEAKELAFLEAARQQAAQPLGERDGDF

Row | SMILES | inhibition at 10 µM [1] [%] | IC50 [1] [µM] | Kd [2] [µM]
1 | COc1ccccc1-n1cc(-c2ccc3cc(-c4cccc(O)c4)ccc3n2)nn1 [compound 1, 1] | 50 | 6.7 | –
2 | COc1ccc(-n2cc(-c3ccc4cc(-c5cccc(O)c5)ccc4n3)nn2)cc1 [compound 3, 3] | 19 | 3.7 | –
3 | Oc1cccc(-c2ccc3nc(-c4cn(-c5ccccc5C(F)(F)F)nn4)ccc3c2)c1 [compound 4, SB2301] | 64.5 | 4.4 | ~26
4 | Oc1cccc(-c2ccc3nc(-c4cn(-c5ccc(C(F)(F)F)cc5)nn4)ccc3c2)c1 [compound 6, 6] | 35.9 | 32 | –
5 | N#Cc1ccccc1-n1cc(-c2ccc3cc(-c4cccc(O)c4)ccc3n2)nn1 [compound 7, 7] | 30.4 | 14.8 | –
6 | N#Cc1cccc(-n2cc(-c3ccc4cc(-c5cccc(O)c5)ccc4n3)nn2)c1 [compound 8, 8] | -7.1 | 27.6 | –
7 | Oc1cccc(-c2ccc3nc(-c4cn(-c5ccccc5Cl)nn4)ccc3c2)c1 [compound 10, 10] | 2.7 | 10.1 | –
8 | Oc1cccc(-c2ccc3nc(-c4cn(-c5cccc(F)c5)nn4)ccc3c2)c1 [compound 11, 11] | 19.2 | 20.6 | –
9 | Oc1cccc(-c2ccc3nc(-c4cn(-c5ccc(Br)cc5)nn4)ccc3c2)c1 [compound 12, 12] | 36.8 | 4.7 | –
10 | Oc1cccc(-c2ccc3nc(-c4cn(-c5ccccc5O)nn4)ccc3c2)c1 [compound 13, 13] | 12.7 | 11.6 | –
11 | O=[N+]([O-])c1ccccc1-n1cc(-c2ccc3cc(-c4cccc(O)c4)ccc3n2)nn1 [compound 14, 14] | 48.5 | 7.9 | –
